Data on 40 compounds can be found in patent US12338219B2, “Antimalarial agents” (Merck Sharp & Dohme LLC, priority 2019, dated 2025).

The structures appear in SMILES notation.

The assay deals with parasites (ring stage parasites, parasite growth). Put plainly: Parasite LDH growth assay (Parasite Assay), antiparasite potency. In kind it is cell-based. Particulars: 72 hours growth, LDH readout, Table 3. The procedure:
Assessing Antiparasite Potency in a Parasite LDH Growth Assay (Parasite Assay) The parasite stock was maintained at […] in RPMI-Hepes media buffered with sodium bicarbonate and supplemented with […]. […] On the day of assay set up, a blood smear of the parasite culture was Giemsa stained and counted. The parasitemia was adjusted to 0.7% rings and the haematocrit was diluted to 2% in RPMI-Hepes media buffered with sodium bicarbonate and supplemented with 500 heat inactivated human serum and 0.5% albumax. 30 ul of diluted parasites are then added into 10 ul of media+compound in pre-prepared Greiner TC assay plates. Parasite assay plates were placed in gassed humidified boxes in single layer and allowed to incubate at 37° C. for 72 hours. After 72 hours growth, assay plates are sealed with parafilm and frozen flat, in single file at −80° C. overnight. On the following day, assay plates are allowed to thaw at room temperature for 4 hours to which an LDH assay is performed to measure parasite growth.

`CCC1(C)CC(NC(=O)[C@@H]2C[C@H]2[C@@H](c2cccnc2)N2C(=N)NC(C)(C)CC2=O)c2ccccc2O1` (single isomer, unassigned) [Example 105A] came in with an EC50 of 0.9 nM.

Compound `COCC[C@H]([C@@H]1C[C@H]1C(=O)NC1CC(C)(C)Oc2c(Cl)cccc21)N1C(=N)NC(C)(C)CC1=O` (stereo partly shown) [Example 112B] yielded an EC50 of 9.4 nM. Against the preceding compound, the EC50 is about 10-fold higher.

The compound `COc1ccc([C@H]([C@@H]2C[C@H]2C(=O)N[C@@H]2c3ccccc3OC(C)(C)[C@H]2O)N2C(=N)NC(C)(C)CC2=O)cn1` [Example 39] gave an EC50 (72 h) of 10.1 nM.

`CC1(C)CC(=O)N([C@H](c2cccnc2)[C@@H]2C[C@H]2C(=O)NC2CC(C)(C)Oc3c(F)cccc32)C(=N)N1` (stereo partly shown) [Example 93A] yielded an EC50 (72 h) of 3.3 nM.

`CCC1(CC)CC(=O)N(C[C@@H]2C(C)[C@H]2C(=O)N[C@H]2C[C@H](C(F)(F)F)Oc3ccccc32)C(=N)N1` (stereo partly shown) [Example 28B] yielded an EC50 of 14 nM.

As to `CC1(C)CC(=O)N(C[C@@H]2C[C@H]2C(=O)N[C@H]2CC(C)(C)Oc3c(C(F)(F)F)ccc(F)c32)C(=N)N1` [Example 99], the response (72 h) was half-maximal at 130 nM (EC50).

With `CCC1(CC)CC(=O)N([C@H](c2cccnc2)[C@@H]2C[C@H]2C(=O)N[C@@H]2c3ccccc3OC(C)(C)[C@H]2O)C(=N)N1` [Example 11B], the EC50 (72 h) was 24 nM. This EC50 lies about 5.4-fold lower than the previous one.

Consider `CC(C)C1(C)CC(NC(=O)[C@@H]2C[C@H]2CN2C(=N)NC(C)(C)CC2=O)c2ccccc2O1` (stereo partly shown) [Example 79A], for which the response (72 h) was half-maximal at 255 nM (EC50). This EC50 is about 11-fold higher than that of the compound before.

Turning to `CC(C)C1(C)CC(NC(=O)[C@@H]2C[C@H]2CN2C(=N)NC(C)(C)CC2=O)c2ccccc2O1` (single isomer, unassigned) [Example 79B], the EC50 was found to be 275 nM.

Turning to `CC[C@]1(C)CC(=O)N([C@@H](c2cncc(F)c2)[C@@H]2C[C@H]2C(=O)N[C@@H]2c3ccccc3OCC2(C)C)C(=N)N1` [Example 102B], under “72 h”, it took 2.5 nM to reach a half-maximal effect (EC50).

With `COCC[C@H]([C@@H]1C[C@H]1C(=O)N[C@@H]1CC(C)(C)Oc2cccc(OC)c21)N1C(=N)NC(C)(C)CC1=O` [Example 74A], under “72 h”, the response was half-maximal at 33 nM (EC50).

Regarding `COCC[C@H]([C@@H]1C[C@H]1C(=O)NC1CC(C)(C)Oc2c(F)cccc21)N1C(=N)NC(C)(C)CC1=O` (stereo partly shown) [Example 111A], the EC50 (72 h) came to 24 nM.

For the compound `CC1(C)CC(=O)N([C@H](c2cccnc2)[C@@H]2C[C@H]2C(=O)N[C@H]2C[C@H](C(F)(F)F)Oc3ccccc32)C(=N)N1` [Example 32], under “72 h”, the EC50 stood at 1.8 nM.

In turn, `CC1(C)CC(=O)N(C[C@@H]2C[C@H]2C(=O)NC2CC(C)(C)Oc3c(Cl)cc(Cl)cc32)C(=N)N1` (stereo partly shown) [Example 97B] came in with an EC50 of 220 nM.

In the case of `CCC1(CC)CC(=O)N(C[C@@H]2C[C@H]2C(=O)N[C@H]2CC(C)(C)Oc3ccccc32)C(=N)N1` [Example 5], the EC50 (72 h) was found to be 49 nM.

Compound `CCC1(C)CC(NC(=O)[C@@H]2C[C@H]2[C@@H](CCOC)N2C(=N)NC(C)(C)CC2=O)c2ccccc2O1` (stereo partly shown) [Example 75A] showed a half-maximal effective concentration (EC50) (72 h) of 8.2 nM. This EC50 is about 6-fold lower than that of the compound before.

For the compound `CCC1(CC)CC(=O)N([C@H](c2cccnc2)[C@H]2[C@H](C(=O)N[C@H]3CC(C)(C)Oc4ccccc43)C2(C)C)C(=N)N1` [Example 48A], a half-maximal effect (72 h) (EC50) was put at 2.7 nM.

Turning to `CCC1(CC)CC(=O)N([C@H](c2cccnc2)[C@@H]2C[C@H]2C(=O)N[C@H]2CCOc3ccccc32)C(=N)N1` [Example 9], for the setting “72 h”, the EC50 came to 6.9 nM. This EC50 lies about 2.6-fold higher than the previous one.

Regarding `CC1(C)CC(=O)N([C@@H](c2cncc(Cl)c2)[C@@H]2C[C@H]2C(=O)N[C@H]2C[C@H](C(F)(F)F)Oc3ccccc32)C(=N)N1` [Example 60B], the EC50 (72 h) came out at 100 nM. Compared with the last compound, the EC50 is about 14-fold higher.

Compound `CC1(C)CC(=O)N(C[C@@H]2C[C@H]2C(=O)N[C@H]2CC(C)(C)Oc3cccc(F)c32)C(=N)N1` [Example 87] gave an EC50 (72 h) of 160 nM.

Take `COCC1(C)CC(NC(=O)[C@@H]2C[C@H]2[C@@H](c2cccnc2)N2C(=N)NC(C)(C)CC2=O)c2ccccc2O1` (single isomer, unassigned) [Example 108A]: the EC50 was found to be 70 nM.

For `CCC1(CC)CC(=O)N([C@H](c2cccnc2)[C@@H]2C[C@H]2C(=O)N[C@H]2C[C@H](C(F)(F)F)Oc3ccccc32)C(=N)N1` [Example 12], a half-maximal effect (72 h) (EC50) was put at 0.9 nM.

As for `CCC1(CC)CC(=O)N(C[C@@H]2C[C@H]2C(=O)N[C@@H]2CC(C)(C)Oc3ccc(F)cc32)C(=N)N1` [Example 7B], for the setting “72 h”, a half-maximal effect (EC50) was put at 29 nM.

With `CCC1(CC)CC(=O)N(CC2C(C(=O)N[C@H]3C[C@H](C(F)(F)F)Oc4ccccc43)C2(C)C)C(=N)N1` (stereo partly shown) [Example 31A], under “72 h”, it took 215 nM to reach a half-maximal effect (EC50). This EC50 lies about 7.4-fold higher than the previous one.

`CCC1(CC)CC(=O)N([C@@H](c2cccnc2)[C@H]2[C@H](C(=O)N[C@H]3CC(C)(C)Oc4ccccc43)C2(C)C)C(=N)N1` [Example 48B] returned an EC50 (72 h) of 7.4 nM.

In turn, `COCC[C@H]([C@@H]1C[C@H]1C(=O)N[C@@H]1CC(C)(C)Oc2cc(C)c(C)cc21)N1C(=N)NC(C)(C)CC1=O` [Example 138B] displayed an EC50 (72 h) of 18 nM.

For the compound `CC1(C)CC(=O)N([C@H](c2cccnc2)[C@@H]2C[C@H]2C(=O)N[C@@H]2c3ccccc3OC(C)(C)[C@H]2O)C(=N)N1` [Example 27], the EC50 (72 h) came out at 78 nM.

In turn, `COCC[C@H]([C@@H]1C[C@H]1C(=O)N[C@@H]1CC(C)(C)Oc2ccc(C(F)(F)F)cc21)N1C(=N)NC(C)(C)CC1=O` [Example 110A] gave an EC50 (72 h) of 21 nM.

Under “72 h”, `COCC[C@H]([C@@H]1C[C@H]1C(=O)N[C@H]1CC(C)(C)Oc2c(C(F)(F)F)ccc(F)c21)N1C(=N)NC(C)(C)CC1=O` [Example 114B] gave an EC50 of 5.1 nM.

`CC[C@]1(C)CC(=O)N(C(c2cncc(F)c2)[C@@H]2C[C@H]2C(=O)NC2c3ccccc3OC(C(F)(F)F)C2O)C(=N)N1` (single isomer, unassigned) [Example 104A] returned an EC50 of 4 nM.

`CC1(C)CC(=O)N([C@H](c2cccc(C#N)c2)[C@@H]2C[C@H]2C(=O)N[C@H]2C[C@H](C(F)(F)F)Oc3ccccc32)C(=N)N1` [Example 52]: the EC50 (72 h) was determined as 1 nM.

Turning to `COCC[C@H]([C@@H]1C[C@H]1C(=O)N[C@H]1CC(C)(C)Oc2cc(C)c(C)cc21)N1C(=N)NC(C)(C)CC1=O` [Example 138A], it took 7.4 nM to reach a half-maximal effect (72 h) (EC50).

In the case of `CC1[C@@H]([C@@H](c2cccnc2)N2C(=N)NC(C)(C)CC2=O)[C@@H]1C(=O)N[C@H]1CC(C)(C)Oc2ccccc21` (stereo partly shown) [Example 57A], the EC50 (72 h) is 3.2 nM.

`COCC[C@H]([C@@H]1C[C@H]1C(=O)N[C@H]1C[C@H](C(F)(F)F)Oc2ccccc21)N1C(=N)N[C@](C)(C(C)C)CC1=O` [Example 21B] returned an EC50 of 1 nM. This lies in the single-digit nanomolar range.

For the compound `COCC[C@H]([C@@H]1C[C@H]1C(=O)N[C@H]1CCOc2ccccc21)N1C(=N)N[C@](C)(C(C)C)CC1=O` [Example 22], a half-maximal effect (72 h) (EC50) was put at 44 nM.

As to `CC1(C)CC(=O)N(C(c2cccc(C#N)c2)[C@@H]2C[C@H]2C(=O)NC2CC(C)(C)Oc3ccc(F)cc32)C(=N)N1` (stereo partly shown) [Example 53A], the EC50 (72 h) is 3.1 nM.

On to `COCC[C@H]([C@@H]1C[C@H]1C(=O)NC1CC(C)(C)Oc2c(Cl)cccc21)N1C(=N)NC(C)(C)CC1=O` (stereo partly shown) [Example 112A], for which, where the note is “72 h”, the EC50 was 18 nM. This EC50 is about 5.8-fold higher than that of the compound before.

Compound `CCC1(CC)CC(=O)N(C[C@@H]2C(C)[C@H]2C(=O)NC2c3ccccc3OC2(C)C)C(=N)N1` (stereo partly shown) [Example 36A] returned an EC50 (72 h) of 247 nM.

Compound `CCC1(CC)CC(=O)N(C[C@H]2C[C@@H]2C(=O)N[C@@H](C)c2ccccc2)C(=N)N1` [Example 3A] gave an EC50 (72 h) of 234 nM. The EC50 values of the last two compounds are within 1.5-fold of each other.

Consider `COCC[C@H]([C@@H]1C[C@H]1C(=O)N[C@H]1CC(C)(C)Oc2cc(Cl)ccc21)N1C(=N)NC(C)(C)CC1=O` [Example 89A], for which, under “72 h”, the EC50 came out at 5.6 nM.

As a reminder, the EC50 is the concentration giving half of the maximal effect. A lower EC50 goes with greater potency.
